# Laboratory results published in patent publication US4060682A, “Process for the synthetic production of 3-deoxy derivative of an aminoglycosidic antibiotic” (priority 1974, dated 1977).
# Legend:
# Test in all cases: Minimum inhibitory concentration, standard serial dilution method, nutrient agar
# Format in all cases: cell-based
# [1] = system: Staphylococcus aureus FDA 209P; conditions: FDA209P, 18 h, read-out: Minimum Inhibitory Concentration
# From the text: (§1) 3'-Deoxyneamine, 3'-deoxy-6'-N-methylneamine, 3'-deoxyribostamycin, 3'-deoxy-6'-N-methylribostamycin, 3'-deoxykanamycin B, 3'-deoxy-6'-N-methylkanamycin B and 3'-deoxyparomamine which are produced by the process of this invention have been confirmed to be identical to their authentic samples, respectively, by making comparison between their n.m.r. spectra (in D2 O), mass spectra of their derivatives, thin layer chromatography on silica gel (developed with 4:5:2:5 n-butanolethanol-chloroform-17% aqueous ammonia) and antibacterial spectra. […] These 3'-deoxy derivatives are of low toxicity similarly to their parent substances and are useful for the therapeutic treatment of infections by gram-positive and gram-negative bacteria. 3'-Deoxyparomamine is useful as an intermediate for synthesis of any valuable derivative of aminoglycosidic antibiotics. The minimum inhibitory concentrations (mcg/ml) of these 3'-deoxy derivatives against various microorganisms were determined according to a standard serial dilution method using nutrient agar incubation medium at 37° C, the estimation being effected after 18 hours incubation.
# [2] = system: Escherichia coli K12 ML1629; conditions: K12ML1629, 18 h, read-out: Minimum Inhibitory Concentration
# From the text: as §1
# [3] = system: Escherichia coli K12 JR66/W677; conditions: K12JR66/W677, 18 h, read-out: Minimum Inhibitory Concentration
# From the text: as §1
# [4] = system: Pseudomonas aeruginosa GN315; conditions: GN315, 18 h, read-out: Minimum Inhibitory Concentration
# From the text: as §1
# [5] = system: Escherichia coli K12 LA290 R55; conditions: K12LA290R55, 18 h, read-out: Minimum Inhibitory Concentration
# From the text: as §1
# [6] = system: Escherichia coli K12 W677; conditions: K12W677, 37° C, 18 hours
# From the text: as §1
# [7] = system: Escherichia coli K12; conditions: K12, 18 h, read-out: Minimum Inhibitory Concentration
# From the text: as §1
# [8] = system: Pseudomonas aeruginosa No.12; conditions: NO.12, 18 h, read-out: Minimum Inhibitory Concentration
# From the text: as §1
# [9] = system: Escherichia coli K12 ML1410; conditions: K12ML1410, 18 h, read-out: Minimum Inhibitory Concentration
# From the text: as §1
# [10] = system: Pseudomonas aeruginosa A3; conditions: A3, 18 h, read-out: Minimum Inhibitory Concentration
# From the text: as §1
Structure (SMILES),MIC [1] [µg/mL],MIC [2] [µg/mL],MIC [3] [µg/mL],MIC [4] [µg/mL],MIC [5] [µg/mL],MIC [6] [µg/mL],MIC [7] [µg/mL],MIC [8] [µg/mL],MIC [9] [µg/mL],MIC [10] [µg/mL]
"CNC[C@H]1O[C@H](O[C@H]2[C@H](O)[C@@H](O[C@H]3O[C@H](CO)[C@@H](O)[C@H](N)[C@H]3O)[C@H](N)C[C@@H]2N)[C@H](N)C[C@@H]1O [3'-Deoxy-6'-N-methylkanamycin B, 3'-deoxy-6'-N-methylkanamycin B]",1.56,1.56,50,6.25,50,1.56,0.78,0.78,1.56,0.78
"NC[C@H]1O[C@H](O[C@H]2[C@H](O)[C@@H](O[C@H]3O[C@H](CO)[C@@H](O)[C@H](N)[C@H]3O)[C@H](N)C[C@@H]2N)[C@H](N)C[C@@H]1O [3'-Deoxykanamycin B, 3'-deoxykanamycin B]",0.78,0.78,50,100,50,1.56,0.78,0.78,0.78,0.78
"NC[C@H]1O[C@H](O[C@H]2[C@H](O)[C@@H](O)[C@H](N)C[C@@H]2N)[C@H](N)C[C@@H]1O [3'-Deoxyneamine, 3'-deoxyneamine]",3.12,6.25,> 100,> 100,100,6.25,6.25,6.25,6.25,6.25
"N[C@@H]1C[C@H](O)[C@@H](CO)O[C@@H]1O[C@H]1[C@H](O)[C@@H](O)[C@H](N)C[C@@H]1N [3'-Deoxyparomamine, 3'-deoxyparomamine]",50,100,> 100,> 100,50,> 100,100,> 100,> 100,> 100
"NC[C@H]1O[C@H](O[C@H]2[C@H](O[C@@H]3O[C@H](CO)[C@@H](O)[C@H]3O)[C@@H](O)[C@H](N)C[C@@H]2N)[C@H](N)C[C@@H]1O [3'-Deoxyribostamycin, 3'-deoxyribostamycin]",6.25,> 100,> 100,> 100,> 100,3.12,6.25,3.12,6.25,3.12
